Experimental data reported in patent publication US20190151329A1, “THERAPEUTIC USE OF DIAMINOPHENOTHIAZINES” (WisTa Laboratories Ltd., priority 2007, published 2019).
Where “and” joins values, the source holds several entries; their conditions need not be identical. Equal values may be shown once. Read-outs that look alike come from different tables or passages of the source.

Columns and labels:
[1] = Pig single oral dose pharmacokinetic study (blood and brain); assay type: in vivo, pigs; conditions: single oral 20 mg/kg
Description: Finally, a comparison was made between the compartment predictions and the results from an oral study in which pigs were administered a single 20 mg/kg dose, and brain levels of MT were determined. […] Blood (0.5, 1, 2, 4, 8, 12, 24 and 48 h) and urine (1, 2, 3, 4, 5, 6, 7, 8, 12, and 24 h) were collected at regular timepoints up to 48 hrs. Two animals were sacrificed at each of 1, 8, 24 and 48 h post dose and brain samples retained. Pharmacokinetic evaluation of the free base of MTC was performed on whole blood and brain tissue samples. Two batches of brain tissue sample were extracted for each animal and analysed essentially as described by Peter et al (2000).
Brain tissue (500 mg) was vortexed and then extracted with dichloroethane (5 ml) and the organic phase taken to dryness under nitrogen. The extract was taken up with methanol and separated by reverse-phase HPLC with ultraviolet detection.

[2] = cited from earlier work; for L-MT urinary excretion rate / Ox-MT urinary excretion rate: 10 mg MTC oral
[3] = cited from earlier work; for Blood Ox-MT concentration: human whole blood, 100 mg MTC IV
[4] = human, time 0.5 hr (mid-time 0.25 hr)
[5] = human, time 1 hr (mid-time 0.75 hr)
[6] = human, time 2 hr (mid-time 1.5 hr)
[7] = human, time 3 hr (mid-time 2.5 hr)
[8] = human, time 4 hr (mid-time 3.5 hr)
[9] = human, time 6 hr (mid-time 5 hr)
[10] = human, time 9 hr (mid-time 7.5 hr)
[11] = human, time 24 hr (mid-time 16.5 hr)
[12] = human, time 33 hr (mid-time 28.5 hr)
[13] = human, time 48 hr (mid-time 40.5 hr)
[14] = human, time 57 hr (mid-time 52.5 hr)
[15] = human, time 72 hr (mid-time 64.5 hr)
[16] = human, time 81 hr (mid-time 76.5 hr)
[17] = human, time 96 hr (mid-time 88.5 hr)
[18] = human, time 105 hr (mid-time 100.5 hr)
[19] = human, time 120 hr (mid-time 112.5 hr)
[20] = human, 10 mg oral, non-compartmental secondary parameter
[21] = human, 10 mg oral, urinary excretion data

Structure (SMILES): CN(C)c1ccc2nc3ccc(=[N+](C)C)cc-3sc2c1 [MTC, methylthioninium chloride]
- half-life ([1]; brain, read-out: terminal elimination half-life, brain (converted)): 23.5 h
- half-life ([1]; whole blood, read-out: terminal elimination half-life, blood (converted)): 23.5 h
- terminal elimination half-life deduced by DiSanto and Wagner ([2]; from urinary excretion data): 15 to 16.5 h
- L-MT urinary excretion rate [2, 4]: 14.01 µg/h
- Ox-MT urinary excretion rate [2, 4]: 2.31 µg/h
- L-MT urinary excretion rate [2, 5]: 385.06 µg/h
- Ox-MT urinary excretion rate [2, 5]: 20.59 µg/h
- L-MT urinary excretion rate [2, 6]: 659.14 µg/h
- Ox-MT urinary excretion rate [2, 6]: 38.66 µg/h
- L-MT urinary excretion rate [2, 7]: 474.29 µg/h
- Ox-MT urinary excretion rate [2, 7]: 50.56 µg/h
- L-MT urinary excretion rate [2, 8]: 384.43 µg/h
- Ox-MT urinary excretion rate [2, 8]: 40.66 µg/h
- L-MT urinary excretion rate [2, 9]: 290.50 µg/h
- Ox-MT urinary excretion rate [2, 9]: 53.01 µg/h
- L-MT urinary excretion rate [2, 10]: 120.29 µg/h
- Ox-MT urinary excretion rate [2, 10]: 42.86 µg/h
- L-MT urinary excretion rate [2, 11]: 78.72 µg/h
- Ox-MT urinary excretion rate [2, 11]: 37.99 µg/h
- L-MT urinary excretion rate [2, 12]: 41.87 µg/h
- Ox-MT urinary excretion rate [2, 12]: 24.34 µg/h
- L-MT urinary excretion rate [2, 13]: 26.77 µg/h
- Ox-MT urinary excretion rate [2, 13]: 11.02 µg/h
- L-MT urinary excretion rate [2, 14]: 14.11 µg/h
- Ox-MT urinary excretion rate [2, 14]: 5.00 µg/h
- L-MT urinary excretion rate [2, 15]: 7.88 µg/h
- Ox-MT urinary excretion rate [2, 15]: 4.98 µg/h
- L-MT urinary excretion rate [2, 16]: 6.39 µg/h
- Ox-MT urinary excretion rate [2, 16]: 2.53 µg/h
- L-MT urinary excretion rate [2, 17]: 3.09 µg/h
- Ox-MT urinary excretion rate [2, 17]: 1.74 µg/h
- L-MT urinary excretion rate [2, 18]: 3.02 µg/h
- Ox-MT urinary excretion rate [2, 18]: 1.23 µg/h
- L-MT urinary excretion rate [2, 19]: 1.91 µg/h
- Ox-MT urinary excretion rate [2, 19]: 0.88 µg/h
- MRT, Free (Ox-MTC) ([2]; human, 10 mg oral): 24.5000 h
- MRT, Leuco (L-MT) ([2]; human, 10 mg oral): 16.8774 h
- T½ (distribution), Free (Ox-MTC) ([2]; human, 10 mg oral): 0.5930 h
- T½ (distribution), Leuco (L-MT) ([2]; human, 10 mg oral): 1.1530 h
- T½ (elimination), Free (Ox-MTC) ([2]; human, 10 mg oral): 15.0364 h
- T½ (elimination), Leuco (L-MT) ([2]; human, 10 mg oral): 16.4953 h
- Urinary excretion (% of total), Free (Ox-MT) ([2]; human, 10 mg oral): 23% and 22.94%
- Urinary excretion (% of total), Leuco (L-MT) ([2]; human, 10 mg oral): 77% and 77.06%
- total urinary recovery ([2]; human, 10 mg oral): 65 % of dose
- AUC, Leuco (L-MT) [2, 20]: 4981.55 µg·h
- CI, Free (Ox-MTC) [2, 20]: 6.7420 L/h
- CI, Leuco (L-MT) [2, 20]: 2.0074 L/h
- F (calculated bioavailability), Free (Ox-MTC) [2, 20]: 0.1483
- F (calculated bioavailability), Leuco (L-MT) [2, 20]: 0.4982
- Vc, Free (Ox-MTC) [2, 20]: 4.4188 L
- Vc, Leuco (L-MT) [2, 20]: 4.1152 L
- K12, Free (Ox-MTC) [2, 21]: 0.7506
- K12, Leuco (L-MT) [2, 21]: 0.2962
- K21, Free (Ox-MTC) [2, 21]: 0.2381
- Kel (terminal elimination rate constant), Free (Ox-MTC) [2, 21]: 0.2263
- Kel (terminal elimination rate constant), Leuco (L-MT) [2, 21]: 0.2430
- Tlag, Free (Ox-MTC) [2, 21]: 0.2078 h
- Tlag, Leuco (L-MT) [2, 21]: 0.2381 h
- VcF (Vc × F), Leuco (L-MT) [2, 21]: 8.2607 L
- terminal elimination half-life (Ox-MT and L-MT comparable) [2, 21]: ~16 h
- corrected apparent central volume (Ox-MT and L-MT comparable) ([2]; in vivo, po): 4 L
- terminal elimination half-life deduced by Peter et al. ([3]; from analysis of blood concentration data): 5.5 to 6.3 h
- Blood Ox-MT concentration ([3]; 0.09 hr): 6.06 µmol/L
- Blood Ox-MT concentration ([3]; 0.15 hr): 3.32 µmol/L
- Blood Ox-MT concentration ([3]; 0.24 hr): 1.73 µmol/L
- Blood Ox-MT concentration ([3]; 0.33 hr): 1.65 µmol/L
- Blood Ox-MT concentration ([3]; 0.5 hr): 0.78 µmol/L
- Blood Ox-MT concentration ([3]; 0.65 hr): 0.61 µmol/L
- Blood Ox-MT concentration ([3]; 0.83 hr): 0.39 µmol/L
